Assay results as given in patent US20210395217A1, “PESTICIDALLY ACTIVE AZOLE-AMIDE COMPOUNDS” (SYNGENTA PARTICIPATIONS AG, priority 2018, published 2021).

Assays:
Format in all cases: in vivo
Plutella xylostella [1] = test: Example B10: Plutella xylostella (diamondback moth), artificial diet, 96-well, eggs; settings: 216 h, application rate of 500 ppm, 9 days after infestation, 96-well plates
Protocol: Example B10: Plutella xylostella (Diamondback Moth)
96-well microtiter plates containing artificial diet were treated with aqueous test solutions, prepared from 10′000 ppm DMSO stock solutions, by a liquid handling robot. After drying, eggs (˜30 per well) were infested onto a netted lid which was suspended above the diet. The eggs hatch and L1 larvae move down to the diet. The samples were assessed for mortality 9 days after infestation.
The following compounds gave an effect of at least 80% average mortality at an application rate of 500 ppm: […]

Plutella xylostella [2] = test: Example B4: Plutella xylostella (diamond back moth), artificial diet, 24-well, eggs; settings: 192 h, application rate of 200 ppm, 8 days after infestation, 24-well plates, read-out: control in at least one of the two categories (mortality or growth inhibition)
Protocol: Example B4: Plutella xylostella (Diamond Back Moth)
24-well microtiter plates with artificial diet were treated with aqueous test solutions prepared from 10′000 ppm DMSO stock solutions by pipetting. After drying, Plutella eggs were pipetted through a plastic stencil onto a gel blotting paper and the plate was closed with it. The samples were assessed for mortality and growth inhibition in comparison to untreated samples 8 days after infestation. The following compounds gave an effect of at least 80% control in at least one of the two categories (mortality or growth inhibition) at an application rate of 200 ppm: […]

Diabrotica balteata = test: Example B1: Diabrotica balteata (corn root worm), maize sprouts sprayed, L2 larvae; settings: 96 h, application rate of 200 ppm, 4 days after infestation, read-out: control in at least one of the two categories (mortality or growth inhibition)
Protocol: Example B1: Diabrotica balteata (Corn Root Worm)
Maize sprouts placed onto an agar layer in 24-well microtiter plates were treated with aqueous test solutions prepared from 10′000 ppm DMSO stock solutions by spraying. After drying, the plates were infested with L2 larvae (6 to 10 per well). The samples were assessed for mortality and growth inhibition in comparison to untreated samples 4 days after infestation.
The following compounds gave an effect of at least 80% control in at least one of the two categories (mortality or growth inhibition) at an application rate of 200 ppm: […]

Spodoptera littoralis [3] = test: Example B7: Spodoptera littoralis (Egyptian cotton leaf worm), cotton leaf discs sprayed, L1 larvae; settings: foliar, 72 h, application rate of 200 ppm, 3 days after infestation, read-out: control in at least one of the three categories (mortality, anti-feedant effect, or growth inhibition)
Protocol: Example B7: Spodoptera littoralis (Egyptian Cotton Leaf Worm)
Cotton leaf discs were placed onto agar in 24-well microtiter plates and sprayed with aqueous test solutions prepared from 10′000 ppm DMSO stock solutions. After drying the leaf discs were infested with five L1 larvae. The samples were assessed for mortality, anti-feeding effect, and growth inhibition in comparison to untreated samples 3 days after infestation. Control of Spodoptera littoralis by a test sample is given when at least one of the categories mortality, anti-feedant effect, and growth inhibition is higher than the untreated sample.

Spodoptera littoralis [4] = test: Example B8: Spodoptera littoralis (Egyptian cotton leaf worm), uptake by lettuce roots from agar, eggs; settings: 144 h, test rate of 12.5 ppm, 6 days after infestation, compound absorbed by lettuce roots, read-out: control in at least one of the three categories (mortality, anti-feeding, or growth inhibition)
Text: Example B8: Spodoptera Littoralis (Egyptian Cotton Leaf Worm)
Test compounds were applied by pipette from 10′000 ppm DMSO stock solutions into 24-well plates and mixed with agar. Lettuce seeds were placed onto the agar and the multi well plate was closed by another plate which contained also agar. After 7 days the compound was absorbed by the roots and the lettuce grew into the lid plate. The lettuce leaves were then cut off into the lid plate. Spodoptera eggs were pipetted through a plastic stencil onto a humid gel blotting paper and the lid plate was closed with it. The samples were assessed for mortality, anti-feedant effect and growth inhibition in comparison to untreated samples 6 days after infestation.
The following compounds gave an effect of at least 80% control in at least one of the three categories (mortality, anti-feeding, or growth inhibition) at a test rate of 12.5 ppm: […]

Euschistus heros = test: Example B2: Euschistus heros (neotropical brown stink bug), soybean leaves sprayed, N2 nymphs; settings: 120 h, application rate of 200 ppm, 5 days after infestation, read-out: control in at least one of the two categories (mortality or growth inhibition)
Protocol: Example B2: Euschistus heros (Neotropical Brown Stink Bug)
Soybean leaves on agar in 24-well microtiter plates were sprayed with aqueous test solutions prepared from 10′000 ppm DMSO stock solutions. After drying the leaves were infested with N2 nymphs. The samples were assessed for mortality and growth inhibition in comparison to untreated samples 5 days after infestation.
The following compounds gave an effect of at least 80% control in at least one of the two categories (mortality or growth inhibition) at an application rate of 200 ppm: F2, F4, F6, F8, F12, F16.

Myzus persicae [5] = test: Example B6: Myzus persicae (green peach aphid), intrinsic activity, sucrose solution, 24-well; settings: 120 h, test rate of 12 ppm, 5 days after infestation
Text: Example B6: Myzus Persicae (Green Peach Aphid): Intrinsic Activity
Test compounds prepared from 10′000 ppm DMSO stock solutions were applied by pipette into 24-well microtiter plates and mixed with sucrose solution. The plates were closed with a stretched Parafilm. A plastic stencil with 24 holes was placed onto the plate and infested pea seedlings were placed directly on the Parafilm. The infested plate was closed with a gel blotting paper and another plastic stencil and then turned upside down. The samples were assessed for mortality 5 days after infestation.

Chilo suppressalis = test: Example B3: Chilo suppressalis (striped rice stem borer), artificial diet, L2 larvae; settings: 144 h, application rate of 200 ppm, 6 days after infestation, read-out: control in at least one of the three categories (mortality, anti-feedant effect, or growth inhibition)
Protocol: Example B3: Chilo suppressalis (Striped Rice Stem Borer)
24-well microtiter plates with artificial diet were treated with aqueous test solutions prepared from 10′000 ppm DMSO stock solutions by pipetting. After drying, the plates were infested with L2 larvae (6-8 per well). The samples were assessed for mortality, anti-feeding effect, and growth inhibition in comparison to untreated samples 6 days after infestation. Control of Chilo suppressalis by a test sample is given when at least one of the categories mortality, anti-feedant effect, and growth inhibition is higher than the untreated sample.

Myzus persicae [6] = test: Example B9: Myzus persicae (green peach aphid), sucrose solution, 96-well; settings: 120 h, application rate of 50 ppm, 5 days after infestation, 96-well plates
Text: Example B9: Myzus persicae (Green Peach Aphid)
Test compounds prepared from 10′000 ppm DMSO stock solutions were applied by a liquid handling robot into 96-well microtiter plates and mixed with a sucrose solution. Parafilm was stretched over the 96-well microtiter plate and a plastic stencil with 96 holes was placed onto the plate. Aphids were sieved into the wells directly onto the Parafilm. The infested plates were closed with a gel blotting card and a second plastic stencil and then turned upside down. The samples were assessed for mortality 5 days after infestation.

Myzus persicae [7] = test: Example B5: Myzus persicae (green peach aphid), feeding/contact activity, sunflower leaf discs; settings: foliar, 144 h, application rate of 200 ppm, 6 days after infestation
Protocol: Example B5: Myzus persicae (Green Peach Aphid): Feeding/Contact Activity
Sunflower leaf discs were placed onto agar in a 24-well microtiter plate and sprayed with aqueous test solutions prepared from 10′000 ppm DMSO stock solutions. After drying, the leaf discs were infested with an aphid population of mixed ages. The samples were assessed for mortality 6 days after infestation.

CC(c1ncnn1-c1ccc(C#N)cn1)N(C)C(=O)c1cc(C(F)(F)F)cc(C(F)(F)F)c1 (stereo not shown) [Compound F2, N-[1-[2-(5-cyano-2-pyridyl)-1,2,4-triazol-3-yl]ethyl]-N-methyl-3,5-bis(trifluoromethyl) benzamide]
≥ 80%: mortality at 500 ppm (Plutella xylostella [1]) | percent control (mortality or growth inhibition) at 200 ppm (Plutella xylostella [2]) | percent control (mortality or growth inhibition) at 200 ppm (Diabrotica balteata) | percent control (mortality, anti-feedant effect or growth inhibition) at 200 ppm (Spodoptera littoralis [3]) | percent control (mortality, anti-feeding or growth inhibition) at 12.5 ppm (Spodoptera littoralis [4]) | percent control (mortality or growth inhibition) at 200 ppm (Euschistus heros) | mortality at 12 ppm (Myzus persicae [5]) | percent control (mortality, anti-feedant effect or growth inhibition) at 200 ppm (Chilo suppressalis) | mortality at 50 ppm (Myzus persicae [6])

CC(c1ncnn1-c1ncc(C#N)cn1)N(CC1CC1)C(=O)c1cc(C(F)(F)F)cc(C(F)(F)F)c1 (stereo not shown) [Compound F4, N-[1-[2-(5-cyanopyrimidin-2-yl)-1,2,4-triazol-3-yl]ethyl]-N-(cyclopropylmethyl)-3,5-bis(trifluoromethyl) benzamide]
≥ 80%: percent control (mortality or growth inhibition) at 200 ppm (Diabrotica balteata) | percent control (mortality, anti-feedant effect or growth inhibition) at 200 ppm (Spodoptera littoralis [3]) | percent control (mortality or growth inhibition) at 200 ppm (Euschistus heros)

Cc1nc(C(C)NC(=O)c2cc(OC(F)F)cc(C(F)(F)F)c2)n(-c2ccc(C#N)cn2)n1 (stereo not shown) [Compound F6, N-[1-[2-(5-cyano-2-pyridyl)-5-methyl-1,2,4-triazol-3-yl]ethyl]-3-(difluoromethoxy)-5-(trifluoromethyl) benzamide]
≥ 80%: percent control (mortality or growth inhibition) at 200 ppm (Plutella xylostella [2]) | percent control (mortality or growth inhibition) at 200 ppm (Diabrotica balteata) | percent control (mortality, anti-feedant effect or growth inhibition) at 200 ppm (Spodoptera littoralis [3]) | percent control (mortality or growth inhibition) at 200 ppm (Euschistus heros) | mortality at 12 ppm (Myzus persicae [5]) | mortality at 50 ppm (Myzus persicae [6])

Cc1nc(C(C)NC(=O)c2cc(Br)cc(C(F)(F)F)c2)n(-c2ccc(C#N)cn2)n1 (stereo not shown) [Compound F8, 3-bromo-N-[1-[2-(5-cyano-2-pyridyl)-5-methyl-1,2,4-triazol-3-yl]ethyl]-5-(trifluoromethyl) benzamide]
≥ 80%: percent control (mortality or growth inhibition) at 200 ppm (Plutella xylostella [2]) | percent control (mortality or growth inhibition) at 200 ppm (Diabrotica balteata) | percent control (mortality, anti-feedant effect or growth inhibition) at 200 ppm (Spodoptera littoralis [3]) | percent control (mortality or growth inhibition) at 200 ppm (Euschistus heros) | mortality at 12 ppm (Myzus persicae [5]) | mortality at 50 ppm (Myzus persicae [6])

Cc1nc(C(C)NC(=O)c2cc(C(F)F)cc(C(F)(F)F)c2)n(-c2ccc(C#N)cn2)n1 (stereo not shown) [Compound F9, N-[1-[2-(5-cyano-2-pyridyl)-5-methyl-1,2,4-triazol-3-yl]ethyl]-3-(difluoromethyl)-5-(trifluoromethyl) benzamide]
≥ 80%: percent control (mortality or growth inhibition) at 200 ppm (Plutella xylostella [2]) | percent control (mortality or growth inhibition) at 200 ppm (Diabrotica balteata) | percent control (mortality, anti-feedant effect or growth inhibition) at 200 ppm (Spodoptera littoralis [3]) | mortality at 12 ppm (Myzus persicae [5]) | percent control (mortality, anti-feedant effect or growth inhibition) at 200 ppm (Chilo suppressalis) | mortality at 50 ppm (Myzus persicae [6])

CC(NC(=O)c1cc(SC(F)(F)F)cc(C(F)(F)F)c1)c1nc(C2CC2)nn1-c1ccc(C#N)cn1 (stereo not shown) [Compound F12, N-[1-[2-(5-cyano-2-pyridyl)-5-cyclopropyl-1,2,4-triazol-3-yl]ethyl]-3-(trifluoromethyl)-5-(trifluoromethylsulfanyl) benzamide]
≥ 80%: mortality at 500 ppm (Plutella xylostella [1]) | percent control (mortality or growth inhibition) at 200 ppm (Plutella xylostella [2]) | percent control (mortality or growth inhibition) at 200 ppm (Diabrotica balteata) | percent control (mortality, anti-feedant effect or growth inhibition) at 200 ppm (Spodoptera littoralis [3]) | percent control (mortality or growth inhibition) at 200 ppm (Euschistus heros) | percent control (mortality, anti-feedant effect or growth inhibition) at 200 ppm (Chilo suppressalis)

Cc1nc(C(C)N(C)C(=O)c2cc(C(F)(F)F)cc(C(F)(F)F)c2)n(-c2ccc(C#N)cn2)n1 (stereo not shown) [Compound F16, N-[1-[2-(5-cyano-2-pyridyl)-5-methyl-1,2,4-triazol-3-yl]ethyl]-N-methyl-3,5-bis(trifluoromethyl) benzamide]
≥ 80%: percent control (mortality or growth inhibition) at 200 ppm (Plutella xylostella [2]) | percent control (mortality or growth inhibition) at 200 ppm (Diabrotica balteata) | percent control (mortality, anti-feedant effect or growth inhibition) at 200 ppm (Spodoptera littoralis [3]) | mortality at 200 ppm (Myzus persicae [7]) | percent control (mortality or growth inhibition) at 200 ppm (Euschistus heros) | mortality at 12 ppm (Myzus persicae [5]) | percent control (mortality, anti-feedant effect or growth inhibition) at 200 ppm (Chilo suppressalis) | mortality at 50 ppm (Myzus persicae [6])

CC(NC(=O)c1cc(OCC(F)(F)F)cc(C(F)(F)F)c1)c1ncnn1-c1ccc(C#N)cn1 (stereo not shown) [Compound F21, N-[1-[2-(5-cyano-2-pyridyl)-1,2,4-triazol-3-yl]ethyl]-3-(2,2,2-trifluoroethoxy)-5-(trifluoromethyl) benzamide]
≥ 80%: mortality at 500 ppm (Plutella xylostella [1]) | percent control (mortality or growth inhibition) at 200 ppm (Plutella xylostella [2]) | percent control (mortality or growth inhibition) at 200 ppm (Diabrotica balteata) | percent control (mortality, anti-feedant effect or growth inhibition) at 200 ppm (Spodoptera littoralis [3]) | percent control (mortality, anti-feedant effect or growth inhibition) at 200 ppm (Chilo suppressalis)
